Assay results: paper PMC9160031, “Identification of HMGCR as the anticancer target of physapubenolide against melanoma cells by in silico target prediction” (Acta Pharmacologica Sinica, 2021)

Molecular target: T1, 3-hydroxy-methylglutaryl CoA reductase (HMGCR) (Homo sapiens, UniProt P04035)
T1 sequence (P04035 1-888): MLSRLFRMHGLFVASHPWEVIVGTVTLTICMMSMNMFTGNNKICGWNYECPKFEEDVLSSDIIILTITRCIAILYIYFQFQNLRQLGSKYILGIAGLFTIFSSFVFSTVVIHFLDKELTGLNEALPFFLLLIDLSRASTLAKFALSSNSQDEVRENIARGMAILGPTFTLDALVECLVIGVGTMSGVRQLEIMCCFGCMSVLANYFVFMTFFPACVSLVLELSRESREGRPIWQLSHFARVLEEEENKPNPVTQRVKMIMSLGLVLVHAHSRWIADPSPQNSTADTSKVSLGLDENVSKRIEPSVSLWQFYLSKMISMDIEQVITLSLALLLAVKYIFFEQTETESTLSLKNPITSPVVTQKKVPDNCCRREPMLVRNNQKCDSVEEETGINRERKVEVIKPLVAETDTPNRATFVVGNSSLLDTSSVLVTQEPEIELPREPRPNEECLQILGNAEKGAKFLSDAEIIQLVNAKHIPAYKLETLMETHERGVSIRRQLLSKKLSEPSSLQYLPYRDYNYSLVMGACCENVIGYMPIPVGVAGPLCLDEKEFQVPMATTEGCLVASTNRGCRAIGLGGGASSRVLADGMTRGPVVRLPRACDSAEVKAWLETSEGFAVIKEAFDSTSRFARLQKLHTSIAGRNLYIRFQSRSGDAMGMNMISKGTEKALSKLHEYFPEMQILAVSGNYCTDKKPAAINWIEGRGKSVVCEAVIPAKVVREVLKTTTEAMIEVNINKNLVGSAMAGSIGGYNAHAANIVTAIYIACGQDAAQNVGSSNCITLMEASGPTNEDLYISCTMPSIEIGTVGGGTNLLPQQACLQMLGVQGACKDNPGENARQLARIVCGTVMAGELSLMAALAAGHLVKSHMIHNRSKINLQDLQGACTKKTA
Assay: SPR direct binding assay (PB listed as stationary phase)

CC(=O)O[C@H]1CC([C@H](C)C2CC(C)=C(C)C(=O)O2)[C@@]2(C)CCC3C(C[C@H]4O[C@]45[C@@H](O)C=CC(=O)[C@]35C)[C@]12O (stereo partly shown) [PB, Physapubenolide]
Kd: 1460 nM
